In US12673946B2, “Pyrimidin-4(3H)-one derivatives as TRPV4 antagonists” (RaQualia Pharma Inc., priority 2020, dated 2026):

Target: T1, human TRPV4 (Homo sapiens, UniProt Q9HBA0)
T1 construct: host or cells: tetracycline-inducible Flp-In T-REx 293 cells
Experiment: Hypotonicity-induced Ca2+ influx (Fluo-4, FDSS)
Format: cell-based
Outline: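 Flp-In T-REx 293 cells with tetracycline-induced human TRPV4, loaded with Fluo-4 for 60 min at 25 °C. Compound added 5 min before hypotonic mannitol/CaCl2 solution. Ca2+ signal recorded for 4.5 min on FDSS.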

[1] = Flp-In T-REx 293 cells expressing human TRPV4, examples listed under heading 'Human IC50<50 nM'
[2] = Flp-In T-REx 293 cells stably expressing human TRPV4, compounds listed by potency bin (<10 nM Tables 96-1/96-2, <3 nM Table 97)

T1 sequence (Q9HBA0 whole entry): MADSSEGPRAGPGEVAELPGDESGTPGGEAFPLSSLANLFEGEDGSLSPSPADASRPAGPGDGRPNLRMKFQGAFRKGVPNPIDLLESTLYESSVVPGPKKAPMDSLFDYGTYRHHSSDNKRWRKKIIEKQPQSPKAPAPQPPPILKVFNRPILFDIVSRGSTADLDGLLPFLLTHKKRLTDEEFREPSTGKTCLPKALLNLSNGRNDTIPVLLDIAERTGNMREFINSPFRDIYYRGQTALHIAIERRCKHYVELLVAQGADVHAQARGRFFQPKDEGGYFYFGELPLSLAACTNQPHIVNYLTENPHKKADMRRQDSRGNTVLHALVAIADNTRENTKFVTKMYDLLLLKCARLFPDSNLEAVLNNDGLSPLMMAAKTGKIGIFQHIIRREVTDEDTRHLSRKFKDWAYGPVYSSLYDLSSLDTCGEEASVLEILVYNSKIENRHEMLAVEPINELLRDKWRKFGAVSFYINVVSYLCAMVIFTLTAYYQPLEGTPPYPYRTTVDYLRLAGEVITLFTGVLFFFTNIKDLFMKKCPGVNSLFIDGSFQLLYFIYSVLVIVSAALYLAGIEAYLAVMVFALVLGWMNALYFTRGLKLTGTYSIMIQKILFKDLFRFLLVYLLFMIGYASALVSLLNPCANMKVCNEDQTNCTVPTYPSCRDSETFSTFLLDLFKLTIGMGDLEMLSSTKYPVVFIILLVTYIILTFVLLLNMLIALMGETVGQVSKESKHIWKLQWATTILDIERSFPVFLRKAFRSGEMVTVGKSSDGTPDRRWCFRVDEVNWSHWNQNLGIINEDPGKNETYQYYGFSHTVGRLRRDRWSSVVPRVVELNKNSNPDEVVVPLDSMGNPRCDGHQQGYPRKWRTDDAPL

Structure (SMILES)	IC50 [1] [nM]	IC50 [2] [nM]
O=C(C(O)c1cccc(Cl)c1F)N1CCCc2nc(C3(c4cncc(-c5ccccc5)c4)CC3)[nH]c(=O)c2C1 (centres unmarked) [19-11]	< 50	< 3
CC(C)c1cncc(C2(c3nc4c(c(=O)[nH]3)CN(C(=O)C(O)c3cccc(Cl)c3F)CCC4)CC2)c1 (centres unmarked) [19-12]	< 50	< 10
O=C([C@H](O)c1cccc(C(F)(F)F)c1)N1CCCc2nc(C3(c4cncc(C(F)(F)F)c4)CC3)[nH]c(=O)c2C1 [19-13]	< 50	< 10
O=C(Cc1cccc(-c2cccc(C(F)(F)F)c2)c1)N1CCCc2nc(C3(c4cncc(-c5ccccc5)c4)CC3)[nH]c(=O)c2C1 [19-14]	< 50	< 10
O=C(Cc1cccc(-c2cccc(Cl)c2)c1)N1CCCc2nc(C3(c4cncc(-c5ccccc5)c4)CC3)[nH]c(=O)c2C1 [19-15]	< 50	< 10
O=C(N1CCCc2nc(C3(c4ccccc4)CC3)[nH]c(=O)c2C1)C(F)(F)c1cccc(C(F)(F)F)c1 [20-1]	< 50	< 3
O=C(N1CCCc2nc(C3(c4cccc(Cl)c4)CC3)[nH]c(=O)c2C1)C(F)(F)c1cccc(Cl)c1 [20-2]	< 50	< 3
O=C(N1CCCc2nc(C3(c4cccc(F)c4)CC3)[nH]c(=O)c2C1)C(F)(F)c1cccc(C(F)(F)F)c1 [20-3]	< 50	< 3
O=C(N1CCCc2nc(C3(c4cccc(Cl)c4)CC3)[nH]c(=O)c2C1)C(F)(F)c1cccc(C(F)(F)F)c1 [20-4]	< 50	< 3
O=C(N1CCCc2nc(C3(c4cccc(F)c4)CC3)[nH]c(=O)c2C1)C(F)(F)c1cccc(Cl)c1 [20-5]	< 50	< 3
CC(C)c1cccc(C2(c3nc4c(c(=O)[nH]3)CN(C(=O)C(F)(F)c3cccc(C(F)(F)F)c3)CCC4)CC2)c1 [20-6]	< 50	< 10
O=C(N1CCCc2nc(C3(c4ccccc4)CC3)[nH]c(=O)c2C1)C(F)(F)c1cccc(Cl)c1 [20-7]	< 50	< 10
CC(C)c1cccc(C2(c3nc4c(c(=O)[nH]3)CN(C(=O)C(F)(F)c3cccc(Cl)c3)CCC4)CC2)c1 [20-8]	< 50	< 10
O=C(N1CCc2nc(C3(c4ccccc4)CC3)[nH]c(=O)c2C1)C(F)(F)c1cccc(C(F)(F)F)c1 [20-9]	< 50	–
O=C(N1CCc2nc(C3(c4cccc(Cl)c4)CC3)[nH]c(=O)c2C1)C(F)(F)c1cccc(C(F)(F)F)c1 [20-10]	< 50	–
CC(C)c1cccc(C2(c3nc4c(c(=O)[nH]3)CN(C(=O)C(F)(F)c3cccc(C(F)(F)F)c3)CC4)CC2)c1 [20-13]	< 50	–
CC(C)c1cccc(C2(c3nc4c(c(=O)[nH]3)CN(C(=O)C(F)(F)c3cccc(Cl)c3)CC4)CC2)c1 [20-14]	< 50	–
O=C(N1CCCc2nc(C3(c4cccc(-c5csc6ccccc56)c4)CC3)[nH]c(=O)c2C1)C(F)(F)c1cccc(C(F)(F)F)c1 [20-15]	< 50	< 10
O=C(N1CCCc2nc(C3(c4cccs4)CC3)[nH]c(=O)c2C1)C(F)(F)c1cccc(C(F)(F)F)c1 [21-1]	< 50	< 3

Structure (SMILES)	IC50 [1] [nM]	IC50 [2] [nM]
O=C(N1CCCc2nc(C3(c4cccs4)CC3)[nH]c(=O)c2C1)C(F)(F)c1cccc(Cl)c1 [21-2]	< 50	< 10
CC(C)c1csc(C2(c3nc4c(c(=O)[nH]3)CN(C(=O)C(F)(F)c3cccc(Cl)c3)CCC4)CC2)c1 [21-3]	< 50	< 3
CC(C)c1csc(C2(c3nc4c(c(=O)[nH]3)CN(C(=O)C(F)(F)c3cccc(Cl)c3)CC4)CC2)c1 [21-4]	< 50	< 10
CC(C)c1csc(C2(c3nc4c(c(=O)[nH]3)CN(C(=O)C(F)(F)c3cccc(C(F)(F)F)c3)CC4)CC2)c1 [21-5]	< 50	< 10
CC(C)c1csc(C2(c3nc4c(c(=O)[nH]3)CN(C(=O)C(F)(F)c3cccc(Cl)c3F)CCC4)CC2)c1 [21-6]	< 50	< 10
CC(C)c1cncc(C2(c3nc4c(c(=O)[nH]3)CN(C(=O)C(F)(F)c3cccc(C(F)(F)F)c3)CCC4)CC2)c1 [22-1]	< 50	< 3
O=C(N1CCCc2nc(C3(c4cncc(-c5ccccc5)c4)CC3)[nH]c(=O)c2C1)C(F)(F)c1cccc(Cl)c1 [22-2]	< 50	< 3
CC(C)c1cncc(C2(c3nc4c(c(=O)[nH]3)CN(C(=O)C(F)(F)c3cccc(Cl)c3)CCC4)CC2)c1 [22-3]	< 50	< 3
O=C(N1CCCc2nc(C3(c4cncc(-c5ccccc5)c4)CC3)[nH]c(=O)c2C1)C(F)(F)c1cccc(C(F)(F)F)c1 [22-4]	< 50	< 3
O=C(N1CCc2nc(C3(c4cncc(-c5ccccc5)c4)CC3)[nH]c(=O)c2C1)C(F)(F)c1cccc(Cl)c1 [22-5]	< 50	< 10
O=C(N1CCc2nc(C3(c4cncc(-c5ccccc5)c4)CC3)[nH]c(=O)c2C1)C(F)(F)c1cccc(C(F)(F)F)c1 [22-6]	< 50	< 10
O=C(N1CCCc2nc(C3(c4cncc(-c5ccccc5)c4)CC3)[nH]c(=O)c2C1)C(F)(F)c1cccc(Cl)c1F [22-7]	< 50	< 3
CC(C)c1cncc(C2(c3nc4c(c(=O)[nH]3)CN(C(=O)C(F)(F)c3cccc(Cl)c3F)CCC4)CC2)c1 [22-8]	< 50	< 10
CC(C)c1cncc(C2(c3nc4c(c(=O)[nH]3)CN(C(=O)C(F)(F)c3cccc(C(F)(F)F)c3)CC4)CC2)c1 [22-9]	< 50	< 10
CC(C)c1cncc(C2(c3nc4c(c(=O)[nH]3)CN(C(=O)C(F)(F)c3cccc(Cl)c3)CC4)CC2)c1 [22-10]	< 50	–
O=C([C@H](O)c1cccc(Cl)c1)N1CCc2nc(C3(c4cc(C5CCC(F)(F)CC5)cs4)CC3)[nH]c(=O)c2C1 [23-1, (R)-6-(2-(3-chlorophenyl)-2-hydroxyacetyl)-2-(1-(4-(4,4-difluorocyclohexyl)thiophen-2-yl)cyclopropyl)-5,6,7,8-tetrahydropyrido[4,3-d]pyrimidin-4(3H)-one]	< 50	< 10
O=C([C@H](O)c1cccc(Cl)c1)N1CCc2nc(C3(c4cc(C5CCCC5)cs4)CC3)[nH]c(=O)c2C1 [23-2]	< 50	< 10
O=C([C@H](O)c1cccc(Cl)c1)N1CCc2nc(C3(c4cccc(C5CCCC5)c4)CC3)[nH]c(=O)c2C1 [24-1]	< 50	< 10
O=C([C@H](O)c1cccc(Cl)c1)N1CCc2nc(C3(c4cncc(C5CCCC5)c4)CC3)[nH]c(=O)c2C1 [25-1]	< 50	< 3

Structure (SMILES)	IC50 [1] [nM]	IC50 [2] [nM]
O=C([C@H](O)c1cccc(Cl)c1)N1CCc2nc(C3(c4cncc(C5CCCCC5)c4)CC3)[nH]c(=O)c2C1 [25-2]	< 50	< 10
CC(C)c1cncc(C2(c3nc4c(c(=O)[nH]3)CN(C(=O)[C@H](O)c3cccc(Cl)c3)CC4)CC2)c1 [25-3]	< 50	< 10
O=C([C@H](O)c1cccc(Cl)c1)N1CCc2nc(C3(c4cncc(C5CCC(F)(F)CC5)c4)CC3)[nH]c(=O)c2C1 [25-4]	< 50	< 10
O=C([C@H](O)c1cccc(C(F)(F)F)c1)N1CCc2nc(C3(c4cc(C5CCC(F)(F)CC5)cs4)CC3)[nH]c(=O)c2C1 [26-1]	< 50	< 10
O=C([C@H](O)c1cccc(C(F)(F)F)c1)N1CCc2nc(C3(c4cc(C5CCOCC5)cs4)CC3)[nH]c(=O)c2C1 [26-2]	< 50	–
CC(C)c1cccc(C2(c3nc4c(c(=O)[nH]3)CN(C(=O)[C@H](O)c3cccc(C(F)(F)F)c3)CC4)CC2)c1 [27-1]	< 50	< 10
O=C([C@H](O)c1cccc(C(F)(F)F)c1)N1CCc2nc(C3(c4cccc(C5CCCC5)c4)CC3)[nH]c(=O)c2C1 [27-2]	< 50	< 10
O=C([C@H](O)c1cccc(C(F)(F)F)c1)N1CCc2nc(C3(c4cccc(C5CCOCC5)c4)CC3)[nH]c(=O)c2C1 [27-3]	< 50	< 10
O=C(Cc1cccc(-c2cccc(C(F)(F)F)c2)c1)N1CCc2nc(C3(c4cccc(C5CCCCC5)c4)CC3)[nH]c(=O)c2C1 [27-4]	< 50	< 10
CC(C)c1cccc(C2(c3nc4c(c(=O)[nH]3)CN(C(=O)Cc3cccc(-c5cccc(Cl)c5)c3)CC4)CC2)c1 [27-5]	< 50	–
CC(C)c1cccc(C2(c3nc4c(c(=O)[nH]3)CN(C(=O)Cc3cccc(-c5cccc(C(F)(F)F)c5)c3)CC4)CC2)c1 [27-6]	< 50	< 10
O=C(Cc1cccc(-c2cccc(Cl)c2)c1)N1CCc2nc(C3(c4cccc(C5CCCCC5)c4)CC3)[nH]c(=O)c2C1 [27-7]	< 50	< 10
O=C([C@H](O)c1cccc(C(F)(F)F)c1)N1CCc2nc(C3(c4cncc(C5CCCC5)c4)CC3)[nH]c(=O)c2C1 [28-1]	< 50	< 3
O=C([C@H](O)c1cccc(C(F)(F)F)c1)N1CCc2nc(C3(c4cncc(C5CCCCC5)c4)CC3)[nH]c(=O)c2C1 [28-2]	< 50	< 10
CC(C)c1cncc(C2(c3nc4c(c(=O)[nH]3)CN(C(=O)[C@H](O)c3cccc(C(F)(F)F)c3)CC4)CC2)c1 [28-3]	< 50	< 10
O=C([C@H](O)c1cccc(C(F)(F)F)c1)N1CCc2nc(C3(c4cncc(C5CCC(F)(F)CC5)c4)CC3)[nH]c(=O)c2C1 [28-4]	< 50	< 10
O=C([C@H](O)c1cccc(C(F)(F)F)c1)N1CCc2nc(C3(c4cncc(C5CCOCC5)c4)CC3)[nH]c(=O)c2C1 [28-5]	< 50	–
CC(C)c1cccc(C2(c3nc4c(c(=O)[nH]3)CN(C(=O)[C@H](O)c3cccc(Cl)c3)CCC4)CC2)c1 [29-1]	< 50	< 10
